Earlier results on four substances are cited in US20070213265A1, “Kunitz-type sequences and polypeptides” (Novo Nordisk A/S, priority 2001, published 2007).

For data set [1] the following is noted: high doses; cardiac surgery, including cardiopulmonary bypass operations.
Another data set has as its target plasma kallikrein (Homo sapiens, UniProt P03952).
The target in a further data set is granulocyte elastase (Homo sapiens, UniProt P08246).
Chain of granulocyte elastase (P08246 30-267): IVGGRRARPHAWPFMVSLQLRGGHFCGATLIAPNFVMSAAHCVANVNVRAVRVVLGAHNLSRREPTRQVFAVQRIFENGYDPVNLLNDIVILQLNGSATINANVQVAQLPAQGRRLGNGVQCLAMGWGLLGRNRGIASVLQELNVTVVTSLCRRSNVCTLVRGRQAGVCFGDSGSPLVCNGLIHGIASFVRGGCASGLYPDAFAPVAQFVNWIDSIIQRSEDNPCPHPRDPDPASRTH

Chain of plasma kallikrein (P03952 20-638, species assumed): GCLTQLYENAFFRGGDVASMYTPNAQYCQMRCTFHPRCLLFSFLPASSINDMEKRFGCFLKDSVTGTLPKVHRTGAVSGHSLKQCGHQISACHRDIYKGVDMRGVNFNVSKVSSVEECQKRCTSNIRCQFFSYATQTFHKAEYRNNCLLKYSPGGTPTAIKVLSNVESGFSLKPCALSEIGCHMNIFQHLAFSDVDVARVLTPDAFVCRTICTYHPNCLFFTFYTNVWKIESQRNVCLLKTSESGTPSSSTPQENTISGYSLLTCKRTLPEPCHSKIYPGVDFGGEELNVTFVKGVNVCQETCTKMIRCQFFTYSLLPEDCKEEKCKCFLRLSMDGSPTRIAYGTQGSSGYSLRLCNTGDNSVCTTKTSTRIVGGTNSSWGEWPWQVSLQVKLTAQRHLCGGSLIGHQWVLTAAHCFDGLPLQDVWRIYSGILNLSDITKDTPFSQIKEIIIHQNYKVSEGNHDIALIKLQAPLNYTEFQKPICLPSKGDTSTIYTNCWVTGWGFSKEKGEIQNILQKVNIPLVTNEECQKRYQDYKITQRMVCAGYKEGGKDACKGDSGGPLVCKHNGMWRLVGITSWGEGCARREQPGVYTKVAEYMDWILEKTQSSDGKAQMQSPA

Consider Aprotinin (1-58, Ala15), for which, in the data set with elastase, the effect on elastase result was “weak effect”. aprotinin: the blood loss entry in data set [1] is reported as “significantly reduces blood loss”. aprotinin (3-58, Arg15, Ala17, Ser42): the “plasma kallikrein inhibitory effect” value on plasma kallikrein is listed as “excellent”. In the case of aprotinin(1-58, Val15), at granulocyte elastase, the “selectivity for granulocyte elastase” value is “relatively high selectivity”. Besides, in the data set with collagenase, the “inhibitory effect on collagenase” value was “inhibitory effect”.
